Experimental data from US7655665B2, “Nitromethylene derivatives and their use” (East China University of Science and Technology, priority 2004, dated 2010).

Assays:
Aphis craccivoral = test: Insecticidal activity against Aphis craccivoral by immersing (dipping aphids on bean sprout); assay type: in vivo; conditions: for mortality (%) (500 ppm) Aphis: immersing (dipped 5 seconds), counted after 24 hours, 23° C.; for mortality at 500 ppm: Aphis, 24 h, read-out: mortality (%) (500 ppm) Aphis
Experimental: (§1) Test on the insecticidal activity of Compound Nos. 1-227
Aphis, which belongs to Homoptera and has a piercing-sucking mouthpart, is a common insect for agricultural plant. Aphis craccivoral was tested by the way of immersing.
Test method: exactly weighed various samples were independently added to N,N-dimethylformamide to form a 10 g/L stock solution. The mixture was diluted with 0.2 mL/L aqueous Triton X-100 solution to a concentration of 500 ug/mL. After stably sucking on bean sprout, the adult aphis without wings together with bean sprout was dipped into 500 ug/mL dilution, taken out after 5 seconds, and the excess dilution was sucked out with bibulous paper and the adult aphis without wings was incubated in clean vessel at a constant temperature of 23° C. Each concentration was repeated for 3 times and the control group contained 0.2 mL/L aqueous Triton X-100 solution. The number of killed aphis was counted after 24 hours to calculate the mortality.

Nilaparvata lugens = test: Insecticidal activity against Nilaparvata lugens (planthopper) by spraying; assay type: in vivo; conditions: for mortality (%) (500 ppm) Nilaparvata lugens: spraying 2 ml, counted after 24 hours; for mortality at 500 ppm: Nilaparvata lugens, 24 h, read-out: mortality (%) (500 ppm) Nilaparvata lugens
Experimental: as §1
Planthopper, which belongs to Homoptera and has a piercing-sucking mouthpart, is a common insect for agricultural plant. Nilaparvata lugens was tested by the way of spraying.
Test method: the test compound was exactly formulated into a solution having a certain concentration and clean water was used as a blank control. Each process was repeated for 3 tumblers (3 times). 2 ml of solution was sprayed uniformly to each tumbler by a mini manual sprayer. 10 Nilaparvata lugens were introduced to every sink 6 hours before spraying. Three series of experiments were conducted. The number of killed Nilaparvata lugens was counted after 24 hours to calculate the mortality.

| SMILES | mortality (%) (500 ppm) Aphis (Aphis craccivoral) | mortality (%) (500 ppm) Nilaparvata lugens (Nilaparvata lugens) | mortality at 500 ppm (Aphis craccivoral) [%] | mortality at 500 ppm (Nilaparvata lugens) [%] |
| --- | --- | --- | --- | --- |
| CCC(C)OC1CCC([N+](=O)[O-])=C2N(Cc3cnc(Cl)s3)CCN21 (mixture of isomers) [Compound 33] | 24 | 56 | – | – |
| CCCC(C)OC1CCC([N+](=O)[O-])=C2N(Cc3cnc(Cl)s3)CCN21 (mixture of isomers) [Compound 38] | 35 | 67 | – | – |
| CC(C)(C)COC1CCC([N+](=O)[O-])=C2N(Cc3ccc(Cl)nc3)CCN21 (racemic) [Compound 17] | 100 | 100 | – | – |
| O=[N+]([O-])C1=C2N(Cc3ccc(Cl)nc3)CCN2C(OC2CCCCC2)CC1 (racemic) [Compound 18] | 23 | 67 | – | – |
| C=CCOC1CCC([N+](=O)[O-])=C2N(Cc3ccc(Cl)nc3)CCN21 (racemic) [Compound 19] | 35 | 78 | – | – |
| C#CCOC1CCC([N+](=O)[O-])=C2N(Cc3ccc(Cl)nc3)CCN21 (racemic) [Compound 20] | 39 | 56 | – | – |
| COCCOC1CCC([N+](=O)[O-])=C2N(Cc3ccc(Cl)nc3)CCN21 (racemic) [Compound 21] | 100 | 100 | – | – |
| CCOCCOC1CCC([N+](=O)[O-])=C2N(Cc3ccc(Cl)nc3)CCN21 (racemic) [Compound 22] | 100 | 100 | – | – |
| O=[N+]([O-])C1=C2N(Cc3cnc(Cl)s3)CCN2C(O)CC1 (racemic) [Compound 23] | 87 | 100 | – | – |
| COC1CCC([N+](=O)[O-])=C2N(Cc3cnc(Cl)s3)CCN21 (racemic) [Compound 24] | 100 | 100 | – | – |
| CCOC1CCC([N+](=O)[O-])=C2N(Cc3cnc(Cl)s3)CCN21 (racemic) [Compound 25] | 100 | 100 | – | – |
| O=[N+]([O-])C1=C2N(Cc3cnc(Cl)s3)CCN2C(OCCCl)CC1 (racemic) [Compound 26] | 26 | 64 | – | – |
| O=[N+]([O-])C1=C2N(Cc3cnc(Cl)s3)CCN2C(OCC(F)(F)F)CC1 (racemic) [Compound 27] | 100 | 100 | – | – |
| CCCOC1CCC([N+](=O)[O-])=C2N(Cc3cnc(Cl)s3)CCN21 (racemic) [Compound 28] | 100 | 100 | – | – |
| CC(C)OC1CCC([N+](=O)[O-])=C2N(Cc3cnc(Cl)s3)CCN21 (racemic) [Compound 29] | 100 | 100 | – | – |
| O=[N+]([O-])C1=C2N(Cc3cnc(Cl)s3)CCN2C(OC(C(F)(F)F)C(F)(F)F)CC1 (racemic) [Compound 30] | 58 | 98 | – | – |
| CCCCOC1CCC([N+](=O)[O-])=C2N(Cc3cnc(Cl)s3)CCN21 (racemic) [Compound 31] | 56 | 35 | – | – |
| CC(C)COC1CCC([N+](=O)[O-])=C2N(Cc3cnc(Cl)s3)CCN21 (racemic) [Compound 32] | 37 | 23 | – | – |
| CC(C)(C)OC1CCC([N+](=O)[O-])=C2N(Cc3cnc(Cl)s3)CCN21 (racemic) [Compound 34] | 100 | 100 | – | – |
| CC(C)(OC1CCC([N+](=O)[O-])=C2N(Cc3cnc(Cl)s3)CCN21)C(Cl)(Cl)Cl (racemic) [Compound 35] | 98 | 100 | – | – |
| CCCCCOC1CCC([N+](=O)[O-])=C2N(Cc3cnc(Cl)s3)CCN21 (racemic) [Compound 36] | 34 | 57 | – | – |
| CC(C)CCOC1CCC([N+](=O)[O-])=C2N(Cc3cnc(Cl)s3)CCN21 (racemic) [Compound 37] | 56 | 64 | – | – |

| SMILES | mortality (%) (500 ppm) Aphis (Aphis craccivoral) | mortality (%) (500 ppm) Nilaparvata lugens (Nilaparvata lugens) | mortality at 500 ppm (Aphis craccivoral) [%] | mortality at 500 ppm (Nilaparvata lugens) [%] |
| --- | --- | --- | --- | --- |
| CC(C)(C)COC1CCC([N+](=O)[O-])=C2N(Cc3cnc(Cl)s3)CCN21 (racemic) [Compound 39] | 24 | 35 | – | – |
| O=[N+]([O-])C1=C2N(Cc3cnc(Cl)s3)CCN2C(OC2CCCCC2)CC1 (racemic) [Compound 40] | 45 | 67 | – | – |
| C=CCOC1CCC([N+](=O)[O-])=C2N(Cc3cnc(Cl)s3)CCN21 (racemic) [Compound 41] | 89 | 100 | – | – |
| O=[N+]([O-])C1=C2N(Cc3ccc(Cl)nc3)CCN2C(O)CC1 (stereo not shown) [Compound 1] | – | – | 96 | 100 |
| COC1CCC([N+](=O)[O-])=C2N(Cc3ccc(Cl)nc3)CCN21 (stereo not shown) [Compound 2] | – | – | 100 | 100 |
| CCOC1CCC([N+](=O)[O-])=C2N(Cc3ccc(Cl)nc3)CCN21 (stereo not shown) [Compound 3] | – | – | 100 | 100 |
| C#CCOC1CCC([N+](=O)[O-])=C2N(Cc3cnc(Cl)s3)CCN21 (stereo not shown) [Compound 42] | 45 | 100 | – | – |
| COCCOC1CCC([N+](=O)[O-])=C2N(Cc3cnc(Cl)s3)CCN21 (stereo not shown) [Compound 43] | 100 | 100 | – | – |
| CCOCCOC1CCC([N+](=O)[O-])=C2N(Cc3cnc(Cl)s3)CCN21 (stereo not shown) [Compound 44] | 67 | 100 | – | – |
| O=[N+]([O-])C1=C2N(CC3CCOC3)CCN2C(O)CC1 (stereo not shown) [Compound 45] | 56 | 89 | – | – |
| COC1CCC([N+](=O)[O-])=C2N(CC3CCOC3)CCN21 (stereo not shown) [Compound 46] | 100 | 100 | – | – |
| CCOC1CCC([N+](=O)[O-])=C2N(CC3CCOC3)CCN21 (stereo not shown) [Compound 47] | 45 | 100 | – | – |
| O=[N+]([O-])C1=C2N(CC3CCOC3)CCN2C(OCCCl)CC1 (stereo not shown) [Compound 48] | 3 | 0 | – | – |
| O=[N+]([O-])C1=C2N(CC3CCOC3)CCN2C(OCC(F)(F)F)CC1 (stereo not shown) [Compound 49] | 45 | 32 | – | – |
| CCCOC1CCC([N+](=O)[O-])=C2N(CC3CCOC3)CCN21 (stereo not shown) [Compound 50] | 100 | 100 | – | – |
| CC(C)OC1CCC([N+](=O)[O-])=C2N(CC3CCOC3)CCN21 (stereo not shown) [Compound 51] | 34 | 23 | – | – |
| CCCCOC1CCC([N+](=O)[O-])=C2N(CC3CCOC3)CCN21 (stereo not shown) [Compound 53] | 9 | 12 | – | – |
| CC(C)COC1CCC([N+](=O)[O-])=C2N(CC3CCOC3)CCN21 (stereo not shown) [Compound 54] | 23 | 34 | – | – |
| CCC(C)OC1CCC([N+](=O)[O-])=C2N(CC3CCOC3)CCN21 (stereo not shown) [Compound 55] | 45 | 12 | – | – |
| CC(C)(C)OC1CCC([N+](=O)[O-])=C2N(CC3CCOC3)CCN21 (stereo not shown) [Compound 56] | 100 | 100 | – | – |
| CC(C)(OC1CCC([N+](=O)[O-])=C2N(CC3CCOC3)CCN21)C(Cl)(Cl)Cl (stereo not shown) [Compound 57] | 34 | 38 | – | – |
| CCCCCOC1CCC([N+](=O)[O-])=C2N(CC3CCOC3)CCN21 (stereo not shown) [Compound 58] | 34 | 23 | – | – |
